{"source": "patent EP0925786A1", "about": "“REMEDIES FOR ISCHEMIC DISEASES” (MITSUBISHI CHEMICAL CORPORATION, priority 1996, dated 1998)", "key": {"m-Calpain": {"biological_target": "T1, m-Calpain (Rattus norvegicus, UniProt Q07009)", "T1 construct": "m-Calpain was purified from rat brain; from tissue; host or cells: rat brain", "T1 sequence (Q07009 20-700 limits assumed)": "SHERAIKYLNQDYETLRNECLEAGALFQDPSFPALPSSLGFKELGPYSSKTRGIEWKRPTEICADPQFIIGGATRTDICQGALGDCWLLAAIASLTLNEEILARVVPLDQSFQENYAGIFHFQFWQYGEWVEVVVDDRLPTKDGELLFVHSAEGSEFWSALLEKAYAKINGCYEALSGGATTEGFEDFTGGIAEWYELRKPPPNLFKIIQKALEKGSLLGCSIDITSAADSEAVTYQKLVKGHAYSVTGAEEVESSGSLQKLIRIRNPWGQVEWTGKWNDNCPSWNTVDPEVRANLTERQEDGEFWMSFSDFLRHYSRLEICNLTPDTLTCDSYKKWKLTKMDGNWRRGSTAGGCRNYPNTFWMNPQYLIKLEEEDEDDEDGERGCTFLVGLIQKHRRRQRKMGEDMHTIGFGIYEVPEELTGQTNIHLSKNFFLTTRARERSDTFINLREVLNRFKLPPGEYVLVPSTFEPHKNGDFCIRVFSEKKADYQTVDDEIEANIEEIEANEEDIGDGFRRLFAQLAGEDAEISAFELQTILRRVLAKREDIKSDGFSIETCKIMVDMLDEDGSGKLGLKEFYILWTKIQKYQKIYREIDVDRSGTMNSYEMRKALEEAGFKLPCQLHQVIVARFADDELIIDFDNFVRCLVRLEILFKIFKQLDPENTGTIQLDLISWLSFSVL", "T1 sequence (Q64537 1-270 partner)": "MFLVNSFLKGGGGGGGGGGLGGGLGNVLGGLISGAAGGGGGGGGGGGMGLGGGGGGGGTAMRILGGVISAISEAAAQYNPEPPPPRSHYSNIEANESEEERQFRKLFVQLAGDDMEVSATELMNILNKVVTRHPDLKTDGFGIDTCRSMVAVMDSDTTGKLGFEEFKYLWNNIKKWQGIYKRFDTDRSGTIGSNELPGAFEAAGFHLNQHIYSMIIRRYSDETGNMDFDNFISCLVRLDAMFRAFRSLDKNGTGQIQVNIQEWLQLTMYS", "assay": "Measurement of inhibitory activity against calpain", "assay_type": "biochemical", "details": "m-Calpain purified from rat brain", "experimental": "m-Calpain was purified from rat brain in accordance with the method described in Journal of Biological Chemistry, vol. 259, p. 3210, 1984, and its inhibitory activity was measured in accordance with the method described in Journal of Biological Chemistry, vol. 259, p. 12489, 1984."}, "female SD rats": {"test_system": "female SD rats", "assay": "Myocardial infarct size-limiting effect in acute myocardial infarction model of rat", "assay_type": "in vivo", "experimental": "An experiment was performed on female SD rats (14 weeks of age). The rats were lightly anesthetized with ether and a left thoracotomy wag performed. A permanent occlusion was placed around the proximal left coronary artery to produce acute myocardial infarction. Infarct size evaluated in each excised heart at 24 hours after the ligation.\nThe animals were divided into 2 groups at random, and 10 mg/kg of the compound of Inventive Example 29 (Compound No.. 426 in Table 2) suspended in water with Tween 80 was orally administered in a volume of 1 ml/kg to each animal of one of these groups (drug group) 1 hour before the coronary artery ligation, while the same volume of tap water was administered to the other group (control group). A rat with successful thoracotomy and which survived until 24 hours after the coronary ligation was used as the final evaluation subject. This study was continued until the final number of animals in each group reached 8.\nEvaluation of the myocardial infarct size was carried out in the following manner. Each of the excised heart was cut into the slices at 2 mm thick from apex to base, and the sections were stained by incubating them in TTC solution (1%) at 37°C for 20 minutes to confirm necrotic region and non-necrotic region. Thereafter, sectional images of the sections were photographed to carry out image analysis on a computer. The infarction size was expressed as a % value obtained by dividing total area of necrotic area of all sliced sections by total left ventricle area (including septum part and excluding left ventricle cavity)."}, "in vivo": {"assay": "in vivo", "details": "both sexes, SD, rat, po"}, "[1]": {"assay": "Formation of active metabolite in blood (rat serum incubation, HPLC)", "assay_type": "in vitro ADME", "details": "final concentration 100 µM, 5 minutes of incubation at 37°C", "experimental": "(2S,3S)-2-Acetoxy-3-((S)-4-methyl-2-phenylsulfonylaminovalerylamino)tetrahydrofuran obtained in Inventive Example 2 was dissolved in acetonitrile and added to rat serum to a final concentration of 100 µM. After 5 minutes of incubation at 37°C, this was mixed with acetonitrile and centrifuged and then the thus obtained supernatant fluid was checked by HPLC. It was found as the result that a 97% portion of the thus added (2S,3S)-2-acetoxy-3-((S)-4-methyl-2-phenylsulfonylaminovalerylamino)-tetrahydrofuran was hydrolyzed and converted into its active metabolite (3S)-3-((S)-4-methyl-2-phenylsulfonylaminovalerylamino)-2-tetrahydrofuranol (compound of Inventive Example 1).\nHPLC was carried out under the following conditions. • Column: Nucleosil 100 5C18 4.6 x 250 mm (manufactured by Nargel) • Column temperature: 50°C • Mobile phase: CH3CN:H2O:PIC A Low UV (manufactured by Waters) 22:78:1 • Flow rate: 1 ml/min • Detection wave length: UV 222 nm"}, "[2]": {"assay": "Formation of active metabolite in blood (human sera, HPLC)", "assay_type": "in vitro ADME", "details": "same procedure"}, "[3]": {"assay": "Formation of active metabolite in blood (dog sera, HPLC)", "assay_type": "in vitro ADME", "details": "same procedure"}, "male Wistar rats": {"test_system": "male Wistar rats", "assay": "Action to improve passive avoidance response after a short period of fore-brain ischemia", "assay_type": "in vivo, rat", "details": "dose of 1 mg/kg, po, 30 minutes before 5 minutes of ischemia loading; retrieval test 48 hours after reperfusion", "from_the_text": "Also, animals treated only with cauterization of vertebral arteries were used as a pseudo-operation group. During ischemia and after reperfusion, body temperature of the animals was maintained by putting them on a heat insulating mat until righting reflex was recovered.\nAn apparatus composed of a light room (50 x 50 x 50 cm) equipped with a 100 W bulb and a dark room (20 x 14 x 20 cm) was used in the passive avoidance response test. Each of the rats which have been subjected to cauterization of both vertebral arteries 48 hours prior to the test was put into the light room and its latency to enter the dark room was measured to be used as the response latency at the time of acquisition trial. […] When each rat entered the dark room, the guillotine door was closed and the rat was immediately exposed to an electric shock (2.9 mA, 5 seconds) from the floor grid, thus completing the acquisition trial. Subsequently, 5 minutes of ischemia loading (occlusion of both common carotid arteries) was carried out under ether anesthesia, and retrieval test was carried out 48 hours after reperfusion. […] Presence or absence of the action to improve passive avoidance response was judged by comparing response latencies of the acquisition trial and retrieval test. Each drug to be tested was orally administered 30 minutes before the ischemia loading."}}, "data": [{"smiles": "COc1ccc(S(=O)(=O)N[C@@H](CC(C)C)C(=O)N[C@H]2CCOC2O)cc1", "note": "(stereo partly drawn) [Inventive Example 17, (3S)-3-{(S)-2-(4-methoxyphenylsulfonylamino)-4-methylvalerylamino}-2-tetrahydrofuranol]", "values": [{"measurement": "IC50", "setting": "m-Calpain", "value": 670, "unit": "nM"}]}, {"smiles": "CC(C)C[C@H](NS(=O)(=O)c1ccccc1)C(=O)N[C@H]1C(C)COC1O", "note": "(stereo partly drawn) [Inventive Example 19, (3S)-4-methyl-3-((S)-4-methyl-2-phenylsulfonylaminovalerylamino)-2-tetrahydrofuranol]", "values": [{"measurement": "IC50", "setting": "m-Calpain", "value": 2500, "unit": "nM"}]}, {"smiles": "CC(=O)O[C@@H]1OCC[C@@H]1NC(=O)[C@H](CC(C)C)NS(=O)(=O)c1c(C)cc(C)cc1C", "note": "[Inventive Example 29, (2S,3S)-2-acetoxy-3-{(S)-4-methyl-2-(2,4,6-trimethylphenylsulfonylamino)valerylamino}tetrahydrofuran]", "values": [{"measurement": "infarct size", "setting": "female SD rats; 10 mg/kg orally 1 hour before coronary artery ligation, 24 hours after ligation, necrotic area / total left ventricle area, control 37.3 ± 3.5%", "value": "25.0 ± 1.7", "unit": "%"}, {"measurement": "infarct size reducing ratio", "setting": "female SD rats; 10 mg/kg orally, based on the control group", "value": 33.0, "unit": "%"}, {"measurement": "animals died during the thoracotomy", "setting": "female SD rats; drug group 10 mg/kg orally, control group 2", "value": 3}, {"measurement": "animals died within 24 hours after the operation", "setting": "female SD rats; drug group 10 mg/kg orally, control group 9", "value": 10}, {"measurement": "LD50 at 7 days", "setting": "in vivo", "value": "> 2000", "unit": "mg/kg"}]}, {"smiles": "CCCCCCCCCCCCCCOC(=O)N[C@@H](CC(C)C)C(=O)N[C@H]1CCOC1O", "note": "(stereo partly drawn) [Inventive Example 3, (3S)-3-((S)-4-methyl-2-tetradecyloxycarbonylaminovalerylamino)-2-tetrahydrofuranol]", "values": [{"measurement": "IC50", "setting": "m-Calpain", "value": 110, "unit": "nM"}]}, {"smiles": "CCCCCCCCCCCCCCCC(=O)N[C@@H](CC(C)C)C(=O)N[C@H]1CCOC1O", "note": "(stereo partly drawn) [Inventive Example 9, (3S)-3-((S)-2-hexadecanoylamino-4-methylvalerylamino)-2-tetrahydrofuranol]", "values": [{"measurement": "IC50", "setting": "m-Calpain", "value": 160, "unit": "nM"}]}, {"smiles": "CCCCCCCCCCCCCCC(=O)N[C@@H](CC(C)C)C(=O)N[C@H]1CCOC1O", "note": "(stereo partly drawn) [Inventive Example 8, (3S)-3-((S)-4-methyl-2-pentadecanoylaminovalerylamino)-2-tetrahydrofuranol]", "values": [{"measurement": "IC50", "setting": "m-Calpain", "value": 110, "unit": "nM"}]}, {"smiles": "Cc1ccc(C(=O)N[C@@H](CC(C)C)C(=O)N[C@H]2CCOC2O)cc1", "note": "(stereo partly drawn) [Inventive Example 12, (3S)-3-{(S)-4-methyl-2-(4-methylbenzoylamino)valerylamino}-2-tetrahydrofuranol]", "values": [{"measurement": "IC50", "setting": "m-Calpain", "value": 330, "unit": "nM"}]}, {"smiles": "CC(C)C[C@H](NS(=O)(=O)c1ccc2ccccc2c1)C(=O)N[C@H]1CCOC1O", "note": "(stereo partly drawn) [Inventive Example 18, (3S)-3-{(S)-4-methyl-2-(2-naphthylsulfonylamino)valerylamino}-2-tetrahydrofuranol]", "values": [{"measurement": "IC50", "setting": "m-Calpain", "value": 360, "unit": "nM"}]}, {"smiles": "CC(C)C[C@H](NC(=O)c1ccccc1F)C(=O)N[C@H]1CCOC1O", "note": "(stereo partly drawn) [Inventive Example 10, (3S)-3-{(S)-2-(2-fluorobenzoylamino)-4-methylvalerylamino}-2-tetrahydrofuranol]", "values": [{"measurement": "IC50", "setting": "m-Calpain", "value": 170, "unit": "nM"}]}, {"smiles": "CC(=O)O[C@@H]1OCC[C@@H]1NC(=O)[C@H](CC(C)C)NS(=O)(=O)c1ccccc1", "note": "[Inventive Example 2, (2S,3S)-2-acetoxy-3-((S)-4-methyl-2-phenylsulfonylaminovalerylamino)tetrahydrofuran]", "values": [{"measurement": "portion hydrolyzed and converted into its active metabolite", "setting": "[1]", "value": 97, "unit": "%"}, {"measurement": "formation of active metabolite", "setting": "[2]", "value": "the same active metabolite is formed"}, {"measurement": "formation of active metabolite", "setting": "[3]", "value": "the same active metabolite is formed"}, {"measurement": "action to improve passive avoidance response", "setting": "male Wistar rats", "value": "showed the improving action"}, {"measurement": "LD50 at 7 days", "setting": "in vivo", "value": "> 2000", "unit": "mg/kg"}]}, {"smiles": "CCCCCCCCCCCCCCCCS(=O)(=O)N[C@@H](CC(C)C)C(=O)N[C@H]1CCOC1O", "note": "(stereo partly drawn) [Inventive Example 13, (3S)-3-((S)-2-hexadecylsufonylamino-4-methylvalerylamino)-2-tetrahydrofuranol]", "values": [{"measurement": "IC50", "setting": "m-Calpain", "value": 420, "unit": "nM"}]}, {"smiles": "CC(=O)O[C@@H]1OCC[C@@H]1NC(=O)[C@H](CC(C)C)NC(=O)c1ccccc1F", "note": "[Inventive Example 24, (2S,3S)-2-acetoxy-3-{(S)-2-(2-fluorobenzoylamino)-4-methylvalerylamino}tetrahydrofuran]", "values": [{"measurement": "action to improve passive avoidance response", "setting": "male Wistar rats", "value": "showed the improving action"}]}]}
